Laboratory results: patent US12473250B2, “Molecular design of new antibiotics and antibiotic adjuvants against MCR strains” (priority 2019, dated 2025)

Tests used:
various pathogens = assay: organism not typed; format: cell-based
Summary of the method: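 Broth microdilution MIC per CLSI: each agent alone and LC compound plus antibiotic (e.g. colistin) combined in equal amounts, serially diluted 2-fold at fixed synergy concentration.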

[1] = tested on: Gram positive bacteria (SA and MRSA strains); assay: Antimicrobial effect on Gram positive bacteria (Table 8); format: cell-based; set-up: key to antimicrobial effect on Gram positive bacteria: MIC (concentration giving 99% inhibition), concentrations in μg; settings: compound alone
Procedure: MIC experiments of the antimicrobial agents were determined by a modified broth microdilution method in accordance with the Clinical and Laboratory Standards Institute (CLSI) guidelines using 96 well culture plates. In brief, serial dilutions of all plates were prepared at different concentrations (μg). The inoculum suspension was prepared by adding isolated colonies from a 18-20 hours on TSA plate into phosphate buffer (0.31 mM, pH 7.2) or in water for injection (BBraun) and adjusting the suspension to a turbidity equivalent to 0.5 McFarland Standard. Each well contained a final bacterial concentration of approximately 5×10^5 colony forming units (CFU)/mL. The plate was covered and incubated at 35° C. for 24 hours. […] For the microdilution plates, turbidity in wells can be measured at OD600 using TECAN infinite M200Pro. MIC was determined as […] concentration that gives a 99 percent inhibition.
The antimicrobial activity of the inventive combination was also tested against Gram positive bacteria, including the multi-drug resistant strains, such as MRSA. […] This means the combination of LC100/LC101 with colistin has broad antimicrobial spectrum, being active against both Gram positive and Gram negative bacteria.

[2] = tested on: 6083655967 [MCR 1+; E.Coli]; assay: Synergistic study between LC100 or LC101 with B2088; format: cell-based; settings: for Combination MIC: strain 6083655967, value of each component
Procedure: (§1) The MICs of the individual drugs and LC compound in combinations were determined using the broth microdilution technique as recommended by the CLSI whereby the two anti-microbial agents were added in an equal amount. (e.g.: 50 μL of Colistin: 50 μL of LC compounds). Diluted media containing compounds and antibiotics will be serially diluted 2-fold, and LC compounds and antibiotics alone or in combination will be assayed at fixed synergy concentration. In all cases, the lowest concentration at which no visible growth occurred was be recorded to be the MIC value of individual and combined antibacterial agents. The results were obtained after 24 hours of incubation.
Using the combination of LC100 and colistin, the activity of a broad range of strains was further tested (Table 7).

[3] = tested on: KLPN multi-drug resistant strains; assay: Synergy of LC100 with colistin against multi-drug resistant strains (Table 5); format: cell-based, Klebsiella pneumonia
Procedure: as §1

[4] = 6093560257 [MCR 1+, E. Coli, NDM-1]
[5] = 7103531927 [MCR 1+, E. Coli, KPC+]
[6] = 7113636863 [MCR 1+, E. Coli, NDM-1]

For CCN(CC)CCCCOc1ccc(/C=C/C(=O)c2ccc(OCCCCN(CC)CC)c(CC=C(C)C)c2O)cc1 [LC100], the “Pathogen sensitivity (✓/x), Colistin 0.5 μg+ LC100 1 μg” value (various pathogens; 6083655967 [MCR 1+, E. Coli]) was “✓”, the “Pathogen sensitivity (✓/x), Colistin 0.5 μg+ LC100 2 μg” value (various pathogens; 6083655967 [MCR 1+, E. Coli]) was “✓” and the “Pathogen sensitivity (✓/x), Colistin 1 μg+ LC100 1 μg” value (various pathogens; 6083655967 [MCR 1+, E. Coli]) was “✓”. For the same compound, the “Pathogen sensitivity (✓/x), Colistin 1 μg+ LC100 2 μg” value (various pathogens; 6083655967 [MCR 1+, E. Coli]) was “✓”, the “Pathogen sensitivity (✓/x), Colistin 0.5 μg+ LC100 1 μg” value (various pathogens; [4]) was “✓” and the “Pathogen sensitivity (✓/x), Colistin 0.5 μg+ LC100 2 μg” value (various pathogens; [4]) was “✓”. For the same compound, the “Pathogen sensitivity (✓/x), Colistin 1 μg+ LC100 1 μg” value (various pathogens; [4]) was “✓”, the “Pathogen sensitivity (✓/x), Colistin 1 μg+ LC100 2 μg” value (various pathogens; [4]) was “✓” and the “Pathogen sensitivity (✓/x), Colistin 0.5 μg+ LC100 1 μg” value (various pathogens; 6123520276 [MCR 1+, E. Coli]) was “✓”. For the same compound, the “Pathogen sensitivity (✓/x), Colistin 0.5 μg+ LC100 2 μg” value (various pathogens; 6123520276 [MCR 1+, E. Coli]) was “✓”, the “Pathogen sensitivity (✓/x), Colistin 1 μg+ LC100 1 μg” value (various pathogens; 6123520276 [MCR 1+, E. Coli]) was “✓” and the “Pathogen sensitivity (✓/x), Colistin 1 μg+ LC100 2 μg” value (various pathogens; 6123520276 [MCR 1+, E. Coli]) was “✓”. The “Pathogen sensitivity (✓/x), Colistin 0.5 μg+ LC100 1 μg” value (various pathogens; 7023436560 [MCR 1+, E. Coli]) was “✓”, the “Pathogen sensitivity (✓/x), Colistin 0.5 μg+ LC100 2 μg” value (various pathogens; 7023436560 [MCR 1+, E. Coli]) was “✓” and the “Pathogen sensitivity (✓/x), Colistin 1 μg+ LC100 1 μg” value (various pathogens; 7023436560 [MCR 1+, E. Coli]) was “✓”. For the same compound, the “Pathogen sensitivity (✓/x), Colistin 1 μg+ LC100 2 μg” value (various pathogens; 7023436560 [MCR 1+, E. Coli]) was “✓”, the “Pathogen sensitivity (✓/x), Colistin 0.5 μg+ LC100 1 μg” value (various pathogens; 7023444207 [MCR 1+, E. Coli]) was “✓” and the “Pathogen sensitivity (✓/x), Colistin 0.5 μg+ LC100 2 μg” value (various pathogens; 7023444207 [MCR 1+, E. Coli]) was “✓”. The “Pathogen sensitivity (✓/x), Colistin 1 μg+ LC100 1 μg” value (various pathogens; 7023444207 [MCR 1+, E. Coli]) was “✓”, the “Pathogen sensitivity (✓/x), Colistin 1 μg+ LC100 2 μg” value (various pathogens; 7023444207 [MCR 1+, E. Coli]) was “✓” and the “Pathogen sensitivity (✓/x), Colistin 0.5 μg+ LC100 1 μg” value (various pathogens; 7023446108 [MCR 1−, E. Coli]) was “✓”. The “Pathogen sensitivity (✓/x), Colistin 0.5 μg+ LC100 2 μg” value (various pathogens; 7023446108 [MCR 1−, E. Coli]) was “✓”, the “Pathogen sensitivity (✓/x), Colistin 1 μg+ LC100 1 μg” value (various pathogens; 7023446108 [MCR 1−, E. Coli]) was “✓” and the “Pathogen sensitivity (✓/x), Colistin 1 μg+ LC100 2 μg” value (various pathogens; 7023446108 [MCR 1−, E. Coli]) was “✓”. The “Pathogen sensitivity (✓/x), Colistin 0.5 μg+ LC100 1 μg” value (various pathogens; 7033607097 [MCR 1−, E. Coli]) was “✓”, the “Pathogen sensitivity (✓/x), Colistin 0.5 μg+ LC100 2 μg” value (various pathogens; 7033607097 [MCR 1−, E. Coli]) was “✓” and the “Pathogen sensitivity (✓/x), Colistin 1 μg+ LC100 1 μg” value (various pathogens; 7033607097 [MCR 1−, E. Coli]) was “✓”. For the same compound, the “Pathogen sensitivity (✓/x), Colistin 1 μg+ LC100 2 μg” value (various pathogens; 7033607097 [MCR 1−, E. Coli]) was “✓”, the “Pathogen sensitivity (✓/x), Colistin 0.5 μg+ LC100 1 μg” value (various pathogens; [5]) was “✓” and the “Pathogen sensitivity (✓/x), Colistin 0.5 μg+ LC100 2 μg” value (various pathogens; [5]) was “✓”. The “Pathogen sensitivity (✓/x), Colistin 1 μg+ LC100 1 μg” value (various pathogens; [5]) was “✓”, the “Pathogen sensitivity (✓/x), Colistin 1 μg+ LC100 2 μg” value (various pathogens; [5]) was “✓” and the “Pathogen sensitivity (✓/x), Colistin 0.5 μg+ LC100 1 μg” value (various pathogens; [6]) was “✓”. For the same compound, the “Pathogen sensitivity (✓/x), Colistin 0.5 μg+ LC100 2 μg” value (various pathogens; [6]) was “✓”, the “Pathogen sensitivity (✓/x), Colistin 1 μg+ LC100 1 μg” value (various pathogens; [6]) was “✓” and the “Pathogen sensitivity (✓/x), Colistin 1 μg+ LC100 2 μg” value (various pathogens; [6]) was “✓”. The “Pathogen sensitivity (✓/x), Colistin 0.5 μg+ LC100 1 μg” value (various pathogens; KLPN ATCC 10031) was “✓”, the “Pathogen sensitivity (✓/x), Colistin 0.5 μg+ LC100 1 μg” value (various pathogens; KLPN CRE 15588) was “✓” and the “Pathogen sensitivity (✓/x), Colistin 1 μg+ LC100 1 μg” value (various pathogens; KLPN CRE 15588) was “✓”. For the same compound, the “Pathogen sensitivity (✓/x), Colistin 0.5 μg+ LC100 1 μg” value (various pathogens; KLPN CRE 16260) was “✓”, the “Pathogen sensitivity (✓/x), Colistin 0.5 μg+ LC100 2 μg” value (various pathogens; KLPN CRE 16260) was “✓” and the “Pathogen sensitivity (✓/x), Colistin 0.5 μg+ LC100 5 μg” value (various pathogens; KLPN CRE 16260) was “✓”. The “Pathogen sensitivity (✓/x), Colistin 1 μg+ LC100 1 μg” value (various pathogens; KLPN CRE 16260) was “✓”, the “Pathogen sensitivity (✓/x), Colistin 1 μg+ LC100 2 μg” value (various pathogens; KLPN CRE 16260) was “✓” and the “Pathogen sensitivity (✓/x), Colistin 1 μg+ LC100 5 μg” value (various pathogens; KLPN CRE 16260) was “✓”. The “Pathogen sensitivity (✓/x), Colistin 0.5 μg+ LC100 1 μg” value (various pathogens; PAE ATCC 15442) was “✓”, the “Pathogen sensitivity (✓/x), Colistin 0.5 μg+ LC100 2 μg” value (various pathogens; PAE ATCC 15442) was “✓” and the “Pathogen sensitivity (✓/x), Colistin 1 μg+ LC100 1 μg” value (various pathogens; PAE ATCC 15442) was “✓”. For the same compound, the “Pathogen sensitivity (✓/x), Colistin 0.5 μg+ LC100 1 μg” value (various pathogens; PAE ATCC BAA-1744) was “✓”, the “Pathogen sensitivity (✓/x), Colistin 0.5 μg+ LC100 2 μg” value (various pathogens; PAE ATCC BAA-1744) was “✓” and the “Pathogen sensitivity (✓/x), Colistin 0.5 μg+ LC100 1 μg” value (various pathogens; PAE DM 4150) was “✓”. For the same compound, the “Pathogen sensitivity (✓/x), Colistin 0.5 μg+ LC100 2 μg” value (various pathogens; PAE DM 4150) was “✓”, the “Pathogen sensitivity (✓/x), Colistin 0.5 μg+ LC100 5 μg” value (various pathogens; PAE DM 4150) was “✓” and the “Pathogen sensitivity (✓/x), Colistin 0.5 μg+ LC100 1 μg” value (various pathogens; PAE DM 23155) was “✓”. For the same compound, the “Pathogen sensitivity (✓/x), Colistin 0.5 μg+ LC100 2 μg” value (various pathogens; PAE DM 23155) was “✓”, the “Pathogen sensitivity (✓/x), Colistin 1 μg+ LC100 1 μg” value (various pathogens; PAE DM 23155) was “✓” and the “Pathogen sensitivity (✓/x), Colistin 1 μg+ LC100 2 μg” value (various pathogens; PAE DM 23155) was “✓”. The “Pathogen sensitivity (✓/x), Colistin 0.5 μg+ LC100 1 μg” value (various pathogens; PAE DM 23257) was “✓”, the “Pathogen sensitivity (✓/x), Colistin 0.5 μg+ LC100 2 μg” value (various pathogens; PAE DM 23257) was “✓” and the “Pathogen sensitivity (✓/x), Colistin 0.5 μg+ LC100 5 μg” value (various pathogens; PAE DM 23257) was “✓”. The “Pathogen sensitivity (✓/x), Colistin 1 μg+ LC100 1 μg” value (various pathogens; PAE DM 23257) was “✓”, the “Pathogen sensitivity (✓/x), Colistin 0.5 μg+ LC100 1 μg” value (various pathogens; PAE DM 23376) was “✓” and the “Pathogen sensitivity (✓/x), Colistin 0.5 μg+ LC100 2 μg” value (various pathogens; PAE DM 23376) was “✓”. The “Pathogen sensitivity (✓/x), Colistin 0.5 μg+ LC100 1 μg” value (various pathogens; PAE DR 5790) was “✓”, the “Pathogen sensitivity (✓/x), Colistin 0.5 μg+ LC100 1 μg” value (various pathogens; PAE DU 14476) was “✓” and the “Pathogen sensitivity (✓/x), Colistin 0.5 μg+ LC100 2 μg” value (various pathogens; PAE DU 14476) was “✓”. The “Pathogen sensitivity (✓/x), Colistin 0.5 μg+ LC100 5 μg” value (various pathogens; PAE DU 14476) was “✓”, the “Pathogen sensitivity (✓/x), Colistin 1 μg+ LC100 1 μg” value (various pathogens; PAE DU 14476) was “✓” and the “activity against Gram positive strains” value ([1]; in words) was “good activity”. The “antimicrobial effect on Gram positive bacteria” value (shortened to “antimicrobial effect”) ([1]; strain MRSA ATCC 43300) was 3.125, the “antimicrobial effect” value ([1]; strain MRSA ATCC 700699) was 3.125 and the “antimicrobial effect” value ([1]; strain MRSA DM 21455) was 3.125. The “antimicrobial effect” value ([1]; strain SA ATCC 6538) was 3.125, the “antimicrobial effect” value ([1]; strain SA ATCC 29213) was 3.125 and the “antimicrobial effect” value ([1]; strain SA DM 4400R) was 3.125. For the same compound, the “Combination MIC” value ([2]; combination B2088 (Ac) + LC 100) was 2 µg/mL, the “Combination MIC” value ([2]; combination B2088 + LC 100) was 1 µg/mL and the “level of synergistic effect with B2088” value ([2]; killing E. coli with the mcr-1 mutation) was 1 µg/mL. For the same compound, the “Colistin MIC in the presence of LC100” value ([3]; strain KLPN 8852, LC 100 2 μg) was >25 µg/mL, the “Colistin MIC in the presence of LC100” value ([3]; strain KLPN 8852, LC 100 5 μg) was 25 µg/mL and the “Colistin MIC in the presence of LC100” value ([3]; strain KLPN 15588, LC 100 2 μg) was 0.39 µg/mL. For the same compound, the “Colistin MIC in the presence of LC100” value ([3]; strain KLPN 15588, LC 100 5 μg) was <0.0975 µg/mL, the “Colistin MIC in the presence of LC100” value ([3]; strain KLPN 24076, LC 100 2 μg) was 0.39 µg/mL and the “Colistin MIC in the presence of LC100” value ([3]; strain KLPN 24076, LC 100 5 μg) was <0.0975 µg/mL. For the same compound, the “Colistin MIC in the presence of LC100” value ([3]; strain KLPN 27025, LC 100 2 μg) was 0.195 µg/mL and the “Colistin MIC in the presence of LC100” value ([3]; strain KLPN 27025, LC 100 5 μg) was <0.0975 µg/mL.
